Results on 18 compounds are retold here after patent US20230365563A1, “QUINAZOLINE COMPOUND AND APPLICATION THEREOF” (SHANGHAI PHARMACEUTICALS HOLDING CO., LTD., priority 2020, published 2023).

The structures appear in SMILES notation. Where “and” joins values, the source holds several entries; their conditions need not be identical. Identical values can stand only once. Counter-ions that a name gives are not always drawn.

Test [1] has as its target T1, KRAS_G12D and cRAF (Homo sapiens, UniProt P01116, G12D).
T1 construct: purchased
Nature of the test: Inhibition of KRAS_G12D/cRAF binding (Cisbio binding kit, 665/615 ratio), Effect Embodiment B. Conditions: read-out: GTP-KRAS-G12D:CRAF IC50. In outline: (§1)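 Test compounds were serially diluted 3-fold from the storage solution over 11 points and dispensed in duplicate wells at 1% final DMSO.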

Test [2] addresses T2, KRAS_WT and SOS1 (Homo sapiens, UniProt P01116).
T2 construct: purchased
Put plainly: Inhibition of KRAS_WT/SOS1 binding (Cisbio binding kit, 665/615 ratio), Effect Embodiment C. Conditions: read-out: GTP-KRAS-WT:SOS1 IC50. In outline:
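Compounds tested as 3-fold, 11-point dilutions in duplicate at 1% DMSO final against the KRAS_WT/SOS1 binding system. IC50 derived by nonlinear regression fit.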

Test [3] has as its target T3, KRAS-G12D and SOS1 (Homo sapiens, UniProt P01116, G12D).
T3 construct: purchased
Put plainly: Inhibition of KRAS-G12D/SOS1 binding (Cisbio binding kit, 665/615 ratio), Effect Embodiment A. Conditions: read-out: GTP-KRAS-G12D:SOS1 IC50. In outline:
as §1

T3 sequence (P01116 1-188 isoform P01116-2 G12D): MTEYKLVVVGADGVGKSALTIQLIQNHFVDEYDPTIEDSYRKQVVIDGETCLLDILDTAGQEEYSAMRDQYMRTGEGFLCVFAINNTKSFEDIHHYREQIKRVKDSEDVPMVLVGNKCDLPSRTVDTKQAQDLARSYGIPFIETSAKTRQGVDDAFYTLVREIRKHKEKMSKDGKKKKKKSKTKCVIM
T1 sequence (P01116 1-188 isoform P01116-2 G12D): as above
T2 sequence (P01116 1-188 isoform P01116-2): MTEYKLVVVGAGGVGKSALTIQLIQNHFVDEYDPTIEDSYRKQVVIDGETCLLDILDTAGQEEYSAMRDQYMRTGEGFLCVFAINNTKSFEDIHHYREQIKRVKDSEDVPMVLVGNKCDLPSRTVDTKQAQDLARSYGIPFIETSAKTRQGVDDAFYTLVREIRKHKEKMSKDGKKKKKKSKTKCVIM

As for `C[C@H]1C[C@@H](COc2nc(N3CC4CCC(C3)N4)c3cc(Cl)c(-c4cc(O)cc5ccccc45)c(F)c3n2)N(C)C1` (single isomer, unassigned) [Compound 190, 4-((R or S)-4-((1R,5S)-3,8-diazabicyclo[3.2.1]octan-3-yl)-6-chloro-2-((2S,4S)-1,4-dimethylpyrrolidin-2-yl)methoxy)-8-fluoroquinazolin-7-yl)naphthalen-2-ol diformate], the IC50 was 28.9 nM in test [1], 292 nM in test [2] and 15.3 nM in test [3].

As for `CN(C)C(C)(C)COc1nc(N2CC3CCC(C2)N3)c2cc(Cl)c(-c3cc(O)cc4ccccc34)c(F)c2n1` (single isomer, unassigned) [Compound 104, 4-((S or R)-4-((1R,5S)-3,8-diazabicyclo[3.2.1]octan-3-yl)-6-chloro-2-(2-(dimethylamino)-2-methylpropoxy)-8-fluoroquinazolin-7-yl)naphthalen-2-ol dihydrochloride], the IC50 in test [1] was 248 nM; in test [2], > 10000 nM; in test [3], 40.9 nM.

With `C#Cc1c(F)ccc2cccc(-c3c(F)cc4c(N5CC6CCC(C5)N6)nc(OCCCN5C6CCC5COC6)nc4c3F)c12` (single isomer, unassigned) [Compound 272b, 8-(3-((R or S)-4-((1R,5S)-3,8-diazabicyclo[3.2.1]octan-3-yl)-7-(8-ethynyl-7-fluoronaphtthalen-1-yl)-6,8-difluoroquinazolin-2-yl)oxy)propyl)-3-oxa-8-azabicyclo[3.2.1]octane formate], the IC50 in test [1] is 76.8 nM; in test [2], 4260 nM; in test [3], 18 nM.

For the compound `CN(C)CC1(COc2nc(N3CC4CCC(C3)N4)c3cc(Cl)c(-c4cc(O)cc5ccccc45)c(F)c3n2)CC1` (single isomer, unassigned) [Compound 186, 4-((R or S)-4-((1R,5S)-3,8-diazabicyclo[3.2.1]octan-3-yl)-6-chloro-2-((1-((dimethylamino)methyl)cyclopropyl)methoxy)-8-fluoroquinazolin-7-yl)naphthalen-2-ol diformate], the IC50 in test [1] was determined as 18.1 nM; in test [2] it was 233 nM; in test [3] it was 16.9 nM.

For the compound `CN(C)C1CN(c2nc(N3CCNCC34CC4)c3cc(Cl)c(-c4cc(O)cc5ccccc45)c(F)c3n2)C1` (single isomer, unassigned) [Compound 19a, (R or S)-4-(6-chloro-2-(3-(dimethylamino)azetidin-1-yl)-8-fluoro-4-(4,7-diazaspiro[2.5]octan-4-yl)quinazolin-7-yl)naphthalen-2-ol], the values for the concentration for half-maximal inhibition (IC50) in test [1], in test [2] and in test [3] were 1630 nM, 9420 nM and 898 nM, respectively.

Regarding `CO[C@@H]1C[C@@H](COc2nc(N3CC4CCC(C3)N4)c3cc(Cl)c(-c4cc(O)cc5ccccc45)c(F)c3n2)N(C)C1` (single isomer, unassigned) [Compound 166, (R or S)-4-(4-((1R,5S)-3,8-diazabicyclo[3.2.1]octan-3-yl)-6-chloro-8-fluoro-2-((2S,4R)-4-methoxy-1-methylpyrrolidin-2-yl)methoxy)quinazolin-7-yl)naphthalenol dihydrochloride], the values for the IC50 in test [1], in test [2] and in test [3] were 31.9 nM, 553 nM and 25 nM, respectively.

`CN(C)CC(C)(C)COc1nc(N2CC3CCC(C2)N3)c2cc(Cl)c(-c3cc(O)cc4ccccc34)c(F)c2n1` (single isomer, unassigned) [Compound 118, 4-((S or R)-4-((1R,5S)-3,8-diazabicyclo[3.2.1]octan-3-yl)-6-chloro-2-(3-(dimethylamino)-2,2-dimethylpropoxy)-8-fluoroquinazolin-7-yl)naphthalen-2-ol dihydrochloride]: the IC50 in test [1] was determined as 53.7 nM; in test [2], 2410 nM; in test [3], 19.5 nM.

Consider `CCCN(C)CCCOc1nc(N2CC3CCC(C2)N3)c2cc(Cl)c(-c3cc(O)cc4ccccc34)c(F)c2n1` (single isomer, unassigned) [Compound 51a, 4-((S or R)-4-((1R,5S)-3,8-diazabicyclo[3.2.1]octan-3-yl)-6-chloro-8-fluoro-2-(3-(methyl(propyl)amino)propoxy)quinazolin-7-yl)naphthalen-2-ol carboxylate], for which the IC50 in test [1] is 144 nM; in test [2], 1420 nM; in test [3], 30.8 nM.

With `Oc1cc(-c2c(Cl)cc3c(N4CC5CCC(C4)N5)nc(OCCCN4CCNCC4)nc3c2F)c2ccccc2c1` (single isomer, unassigned) [Compound 92, 4-((S or R)-4-((1R,5S)-3,8-diazabicyclo[3.2.1]octan-3-yl)-6-chloro-8-fluoro-2-(3-(piperazin-1-yl)propoxy)quinazolin-7-yl)naphthalen-2-ol dihydrochloride], the values for the IC50 in test [1], in test [2] and in test [3] were 139 nM, 4710 nM and 37.4 nM, respectively.

As to `CN(CCCCN1CCN(CCCCN)CC1)CCCOc1nc(N2CC3CCC(C2)N3)c2cc(Cl)c(-c3cc(O)cc4ccccc34)c(F)c2n1` (single isomer, unassigned) [Compound 111, (S or R) 4-(2-(3-((4-(4-aminobutyl)piperazin-1-yl)butyl)(methyl)amino)propoxy)-4-((1R,5S)-3,8-diazabicyclo[3.2.1]octan-3-yl)-6-chloro-8-fluoroquinazolin-7-yl)naphthalen-2-ol pentahydrochloride], the IC50 in test [1] came to 107 nM; in test [2] it was 1110 nM; in test [3], 22.4 nM.

For the compound `CN1CCC[C@H]1COc1nc(N2CC3CCC(C2)N3)c2cc(Cl)c(-c3c(F)c(O)cc4ccccc34)c(F)c2n1` (single isomer, unassigned) [Compound 195b, (S or R)-4-(4-((1R,5S)-3,8-diazabicyclo[3.2.1]octan-3-yl)-6-chloro-8-fluoro-2-((S)-1-methylpyrrolidin-2-yl)methoxy)quinazolin-7-yl)-3-fluoronaphthalen-2-ol formate], the IC50 amounted to 334 nM in test [1], 6490 nM in test [2] and 57.7 nM in test [3].

As to `C[C@@H]1COC[C@H](C)N1CCCOc1nc(N2CC3CCC(C2)N3)c2cc(Cl)c(-c3cc(O)cc4ccccc34)c(F)c2n1` (single isomer, unassigned) [Compound 175, (R or S)-4-(4-((1R,5S)-3,8-diazabicyclo[3.2.1]octan-3-yl)-6-chloro-2-(3-((3R,5S)-3,5-dimethylmorpholinyl)propoxy)-8-fluoroquinazolin-7-yl)naphthalen-2-ol formate], the IC50 in test [1] was found to be 303 nM; in test [2], 4300 nM; in test [3] it was 104 nM.

Consider `Oc1cc(-c2c(Cl)cc3c(N4CC5CCC(C4)N5)nc(OCCN4CCCC4)nc3c2F)c2ccccc2c1` (single isomer, unassigned) [Compound 116, 4-((S or R)-4-((1R,5S)-3,8-diazabicyclo[3.2.1]octan-3-yl)-6-chloro-8-fluoro-2-(2-(pyrrolidin-1-yl)ethoxy)quinazolin-7-yl)naphthalen-2-ol dihydrochloride], for which the IC50 in test [1] is 189 nM; in test [2], 3380 nM; in test [3] it was 65.7 nM.

For the compound `C[C@@H](COc1nc(N2CC3CCC(C2)N3)c2cc(Cl)c(-c3cc(O)cc4ccc(F)c(F)c34)c(F)c2n1)CN1C2CCC1COC2` (single isomer, unassigned) [Compound 228, ((4S or 4R) 4-(2-((2R)-3-(3-oxa-8-azabicyclo[3.2.1]octan-8-yl)-2-methylpropoxy)-4-((1R,5S)-3,8-diazabicyclo[3.2.1]octan-3-yl)-6-chloro-8-fluoroquinazolin-7-yl)-5,6-difluoronaphthalen-2-ol formate], the IC50 was 18.3 nM in test [1], 92.3 nM in test [2] and 14.2 nM in test [3].

In the case of `CN1CC2(CC2)C[C@H]1COc1nc(N2CC3CCC(C2)N3)c2cnc(-c3cc(O)cc4ccccc34)c(F)c2n1` [Compound 137, 4-(4-((1R,5S)-3,8-diazabicyclo[3.2.1]octan-3-yl)-8-fluoro-2-((S)-5-methyl-5-azaspiro[2.4]heptan-6-yl)methoxy)pyridin[4,3-d]pyrimidin-7-yl)naphthalen-2-ol diformate], the IC50 in test [1] turned out to be 10.7 nM; in test [2] it was 123 nM; in test [3], 13.3 nM.

`CCCCN(C)CCCOc1nc(N2CC3CCC(C2)N3)c2cc(Cl)c(-c3cc(O)cc4ccccc34)c(F)c2n1` (single isomer, unassigned) [Compound 113, 4-((S or R)-4-((1R,5S)-3,8-diazabicyclo[3.2.1]octan-3-yl)-2-(3-(butyl(methyl)amino)propoxy)-6-chloro-8-fluoroquinazolin-7-yl)naphthalen-2-ol hydrochloride]: the IC50 was found to be 130 nM in test [1], 4000 nM in test [2] and 51.8 nM in test [3].

As for `CN(C)CCCOc1nc(N2C[C@H]3CC[C@@H](C2)N3)c2ccc(-c3cc(O)cc4ccccc34)c(F)c2n1` [Compound 143, 4-(4-((1R,5S)-3,8-diazabicyclo[3.2.1]octan-3-yl)-2-(3-(dimethylamino)propoxy)-8-fluoroquinazolin-7-yl)naphthalen-2-ol], the IC50 in test [1] is 47.7 nM; in test [2] it was 765 nM; in test [3], 16.7 nM and 21.2 nM.

On to `Oc1cc(-c2c(Cl)cc3c(N4CC5CCC(C4)N5)nc(OCC4(CN5C6CCC5COC6)CCC4)nc3c2F)c2ccccc2c1` (single isomer, unassigned) [Compound 173, (4R or S)-4-(2-((1-((3-oxa-8-azabicyclo[3.2.1]octan-8-yl)methyl)cyclobutyl)methoxy)-4-((1R,5S)-3,8-diazabicyclo[3.2.1]octan-3-yl)-6-chloro-8-fluoroquinazolin-7-yl)naphthalen-2-ol dihydrochloride], for which the IC50 is 37.9 nM in test [1], 251 nM in test [2] and 14.8 nM in test [3].
